{
  "source": "patent US11825844B2",
  "about": "“Method for controlling Fusarium oxysporum f. sp. cubense tropical race 4” (GUANGXI UNIVERSITY, priority 2021, dated 2023)",
  "key": {"[1]": {"test_system": "Brazilian banana seedlings", "assay": "Effect on the growth of Brazilian banana seedlings in treated Gauze's Medium #1", "format": "in vivo", "conditions": "3 mM in Gauze's Medium #1; 6 Brazilian banana seedlings per treatment", "method": "XcA was dissolved in ethanol. In order to investigate the effect of XcA on the growth of Brazilian banana, 3 mM XcA was added to Gauze's Medium #1. A volume of ethanol (CK) equal to the compound concentration was added to the control. A negative control was set up, and 200 μM 8-hydroxyquinoline (8HQ) was added to the Gauze's Medium #1. Then Brazilian banana seedlings were planted in a culture plate containing the above-mentioned treated medium. Each treatment had 6 replicates (6 Brazilian banana seedlings). The culture plate containing Brazilian banana seedlings was placed in a growth chamber to grow for 10 days to observe the effect on plant growth. Each treatment continued to grow for two months, during which an equal volume of sterile water was supplemented, and the plant height, root weight and seedling weight of each treatment were determined."}, "[2]": {"assay": "Chrome azurol S (CAS) agar plate siderophore zone test for Fe-binding", "conditions": "200 μL of 0.2 mM compound solution in Oxford cup, let stand for 3 h", "method": "Chrome azurol S (CAS) agar plate, namely the siderophore screening medium consisting of 1 mL of 20% glucose solution, 3 mL of 10% casein, 100 μL of 1 mmoL/L CaCl2), 2 mL of 1 mmoL/L MgSO4, 100 mL of H2O, and 1.8 g of agar, was heated, and supplemented with 5 mL each of CAS dye solution and phosphate buffered saline (PBS) at 60° C. slowly to obtain a CAS-blue agar medium.\nCAS dye solution included: 1 mmol/L CAS, 4 mmol/L hexadecyl trimethyl ammonium bromide, and 0.1 mmol/L FeCl3.\nPBS (pH 6.8) included: 2.427 g of Na2HPO4.12H2O, 0.5905 g of NaH2PO4.2H2O, 0.075 g of KH2PO4, 0.250 g of NH4Cl, 0.125 g of NaCl, and 100 mL of H2O. All the above solutions were prepared with deionized water. […]\nThe Fe-binding ability of xerucitrinin A was detected by using the CAS agar plate. […] The growth of Foc TR4 is inhibited by binding Fe."}, "spores of Foc TR4": {"test_system": "spores of Foc TR4", "assay": "Effect on spore morphology of Foc TR4 in Gauze's Medium #1, observed under a scanning electron microscope", "format": "cell-based, Fusarium oxysporum f. sp. cubense tropical race 4", "method": "XcA (the compound xerucitrinin A) at a final concentration of 3 mM was added to Gauze's Medium #1, and the filtered spore suspension of Foc was added, with a final spore concentration of 1×10^7 spores/mL. The control treatment was implemented by treating with the same volume of sterile water. The spore suspension was cultured at 28° C. in the dark for 24 h. The spores of Foc were collected and fixed in a 2.5% (v/v) glutaraldehyde solution at 4° C. overnight. The fixed spores were rinsed twice with 0.1 mol/L PBS (pH 7.4), dehydrated gradiently with 30%, 50%, 70%, 80%, 90%, 95%, and 100% ethanol solutions for 20 min, dried and subjected to gold spraying. The spore morphology of Foc TR4 was observed under a scanning electron microscope."}},
  "data": [
    {"smiles": "Cc1c(O)c(C)c2c(c1O)CO[C@]1(C[C@H]3O[C@H](C)[C@@H](C)c4c(C)c(O)c(O)c(c43)O1)[C@H]2C", "note": "[xerucitrinin A]", "values": [
      {"measurement": "effect on the growth of banana seedlings compared with the control", "setting": "[1]", "result": "no adverse effect on the growth of banana seedlings"},
      {"measurement": "Fe-binding ability (siderophore zone around the Oxford cup)", "setting": "[2]", "result": "a siderophore zone appeared around the Oxford cup"},
      {"measurement": "spore morphology of Foc", "setting": "spores of Foc TR4", "result": "obvious crenation on the surface of the spores"},
      {"measurement": "germination and growth of the spores of Foc", "setting": "spores of Foc TR4; 3 mM in Gauze's Medium #1, 28° C. in the dark for 24 h", "result": "affect the germination and growth of the spores of Foc"}
    ]}
  ]
}
